{
  "source": "patent US6100236A",
  "about": "“Method and composition for treating thrombosis” (La Jolla Cancer Research Foundation, priority 1995, dated 2000)",
  "key": {"[1]": {"target": "T1, Fibronectin receptor (Fn-R) (Homo sapiens, UniProt P05556+P08648)", "T1 construct": "similarly purified from (100 mM) octyl glucoside-extracted human placenta; from tissue; host or cells: human placenta", "T1 sequence (P08648 42-894 limits assumed)": "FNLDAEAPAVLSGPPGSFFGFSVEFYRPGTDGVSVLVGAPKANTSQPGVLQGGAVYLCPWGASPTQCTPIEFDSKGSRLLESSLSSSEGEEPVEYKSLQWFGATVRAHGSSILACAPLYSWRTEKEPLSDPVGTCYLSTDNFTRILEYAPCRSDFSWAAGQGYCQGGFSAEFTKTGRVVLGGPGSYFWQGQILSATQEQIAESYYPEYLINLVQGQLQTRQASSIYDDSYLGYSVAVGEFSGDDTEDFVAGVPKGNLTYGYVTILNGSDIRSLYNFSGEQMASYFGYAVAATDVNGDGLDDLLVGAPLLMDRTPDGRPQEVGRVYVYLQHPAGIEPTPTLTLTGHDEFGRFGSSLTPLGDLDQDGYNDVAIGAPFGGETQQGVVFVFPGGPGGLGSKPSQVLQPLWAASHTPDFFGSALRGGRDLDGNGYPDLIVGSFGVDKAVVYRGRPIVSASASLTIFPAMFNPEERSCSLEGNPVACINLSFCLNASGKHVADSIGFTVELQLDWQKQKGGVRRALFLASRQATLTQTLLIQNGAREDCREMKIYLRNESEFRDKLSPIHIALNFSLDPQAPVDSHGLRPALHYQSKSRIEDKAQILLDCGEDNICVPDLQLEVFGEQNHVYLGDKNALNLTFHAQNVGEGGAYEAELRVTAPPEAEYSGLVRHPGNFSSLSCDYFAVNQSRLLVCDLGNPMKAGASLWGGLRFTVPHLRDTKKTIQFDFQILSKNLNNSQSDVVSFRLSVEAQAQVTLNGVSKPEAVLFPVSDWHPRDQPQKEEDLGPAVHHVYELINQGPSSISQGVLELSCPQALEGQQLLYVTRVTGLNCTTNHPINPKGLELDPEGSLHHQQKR", "T1 sequence (P08648 895-1049 partner limits assumed)": "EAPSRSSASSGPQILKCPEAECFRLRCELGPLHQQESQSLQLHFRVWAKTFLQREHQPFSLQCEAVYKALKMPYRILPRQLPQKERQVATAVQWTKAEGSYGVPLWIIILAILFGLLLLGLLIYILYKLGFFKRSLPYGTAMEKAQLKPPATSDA", "T1 sequence (P05556 21-798)": "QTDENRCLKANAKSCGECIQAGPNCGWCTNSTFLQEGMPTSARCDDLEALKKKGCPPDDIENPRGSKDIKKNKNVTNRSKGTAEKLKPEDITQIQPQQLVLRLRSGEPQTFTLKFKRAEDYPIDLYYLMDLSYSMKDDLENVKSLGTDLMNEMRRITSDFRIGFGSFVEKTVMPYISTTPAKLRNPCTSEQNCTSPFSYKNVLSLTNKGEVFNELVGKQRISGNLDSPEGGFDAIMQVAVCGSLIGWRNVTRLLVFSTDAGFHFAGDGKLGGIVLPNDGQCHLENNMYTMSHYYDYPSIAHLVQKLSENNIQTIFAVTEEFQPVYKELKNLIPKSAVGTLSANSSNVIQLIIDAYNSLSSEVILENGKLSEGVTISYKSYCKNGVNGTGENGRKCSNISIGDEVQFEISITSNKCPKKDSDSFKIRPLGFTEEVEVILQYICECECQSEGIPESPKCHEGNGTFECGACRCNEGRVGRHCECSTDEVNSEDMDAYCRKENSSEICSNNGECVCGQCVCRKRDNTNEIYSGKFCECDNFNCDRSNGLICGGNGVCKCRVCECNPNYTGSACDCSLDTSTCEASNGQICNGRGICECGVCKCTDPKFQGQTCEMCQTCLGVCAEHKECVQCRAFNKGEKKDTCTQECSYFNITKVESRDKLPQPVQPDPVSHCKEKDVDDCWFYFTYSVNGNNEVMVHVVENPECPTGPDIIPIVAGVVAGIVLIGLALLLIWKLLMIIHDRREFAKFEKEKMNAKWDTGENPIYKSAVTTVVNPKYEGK", "experiment": "Competitive ELISA for fibronectin receptor binding", "settings": "purified receptor from human placenta, read-out: FnR Binding (IC50)", "experimental": "Peptide binding to purified Fn-R was determined by using a competitive enzyme-linked immunosorbent assay (ELISA) in which fibronectin is immobilized and the binding of solubilized Fn-R is detected with labeled anti-FnR antibodies in the presence of various concentrations of peptide analogue.\nMicrotiter plates were coated with 110 μl of human fibronectin (at 2 μg/ml) in TBS. The plates were washed three times with TBS that contained 0.05% Tween 20. If necessary, peptides were added after this washing in 10 microliter aliquots. The fibronectin receptor was then added in 2-fold serial dilutions with TBS containing 20 mM octyl glucoside and 2 mM MnCl2. The plates were incubated for three hours at room temperature, washed with 200 μl of the above TBS-Tween buffer. 100 μl of affinity-purified rabbit anti-human fibronectin receptor antibody was added to the wells and the plates were incubated for an additional two hours, washed twice with TBS-Tween and then distilled water. Affinity-purified goat anti-rabbit IgG conjugated to horseradish peroxidase (100 μl) was then added to each well. Bonding reactions were incubated for 16 hours at room temperature. The following day, the plates were washed twice with TBS-Tween and then distilled water. […]\nIC50 s for FnR were determined by ELISA (Example III)."}, "platelets [2]": {"tested_on": "platelets", "experiment": "Ex vivo platelet aggregation after peptide injection in canine coronary thrombosis model", "parameters": "species or system dog", "settings": "for Ex vivo reduction of aggregation relative to control levels: 3 mg/kg", "method": "For all ex vivo studies (see FIG. 3), control aggregation values were standardized to the percentages of light transmission observed in PRP and PPP samples (0% and 100%, respectively).\n(§1) Animals were randomly assigned to two treatment groups: vehicle control (i.e., normal saline) or RGD peptides at various concentrations. Peptides were administered intra-atrially in both bolus and continuous injections. […] A continuous infusion of the same peptide was then started immediately after completion of this initial injection. Animals that received a 5 mg/kg bolus. also received a 5 mg/kg/hr infusion, whereas animals that received a 10 mg/kg bolus also received a 10 mg/kg/hr infusion. The anti-thrombotic effects of the peptides were monitored until 30 minutes after the occurrence of a persistent, occlusive thrombus or five hours after the initiation of electrical stimulation (whichever resulted first). If an occlusive thrombus had not developed within four hours after the initiation of current, the peptide infusion was stopped.\nPlatelet counts and ex vivo aggregation studies were performed one hour before and 1, 3, and 5 hours after application of anodal direct current.\nPlatelet aggregation was also determined ex vivo at one, three, and five hours after current application. […]\nThe average aggregation values determined in these studies for all of the peptide treatments are depicted in FIG. 3. […] The control responses in these studies were 70-80% of maximum. […] Here the control responses were 55-80% of maximum."}, "[3]": {"tested_on": "Electrically induced canine coronary thrombosis", "experiment": "Electrically induced canine coronary thrombosis, time to full occlusion", "assay_type": "in vivo, dog", "method": "Male mongrel dogs weighing 14 to 20 kg were selected based on proper aggregation of their platelets in response to arachidonic acid, collagen, and adenosine disphosphate (ADP) and based on similar weights and hemodynamic properties.\nBefore surgery, the animals were anesthetized with sodium pentobarbital (30 mg/kg, i.v.) and then intubated and ventilated on room air with positive pressure using a respirator (Harvard Apparatus, S. Natick, Mass.) at a volume of 30 ml/kg and a frequency of 12 breaths/min. Surgery, performed under aseptic conditions, was begun with the placement of cannulae into the left carotid artery and jugular vein for monitoring arterial blood pressure (Statham P23 pressure transducer, Gould, Inc., Cardiovascular Products, Oxnard, Calif.) and administering intravenous fluids.\nThe heart was exposed via a left thoracotomy through the 5th intercostal space. A 2-cm segment of the left circumflex coronary artery (LCCA) was isolated from surrounding tissue by blunt dissection. […] The intra-coronary electrode was constructed by attaching a 25-gauge hypodermic needle tip to a 30-gauge Teflon-insulated silver-coated copper wire. The mechanical occluder was constructed of stainless steel in a C shape with a Teflon screw (2 mm diameter) on top. It was adjusted to control vessel circumference and decrease the reactive hyperemic flow due to a 10-sec (full) occlusion by 50-70% without affecting basal coronary blood flow (FIG. 1). A monopolar epicardial electrode was sutured to the surface of the ventricle in the region of LCCA distribution to monitor ischemic changes in the electrocardiogram (ECG). The left atrium was cannulated with polythylene tubing for administration of the peptide. Continuous recordings of blood pressure, limb lead II ECG, epicardial electrogram, and mean and phasic LCCA blood flow were obtained on a Model 7 polygraph (Grass Instrument Co., Quincy, Mass.).\nOne hour after the completion of surgery, a 100 micro-amp continuous anodal direct current delivered from a 9 volt nickel-cadmium battery was applied to the intimal surface of the LCCA. The anode of the battery was in series with a 250,000 ohm potentiometer and the intraluminal coronary artery electrode. The electric circuit was completed by placing the cathode in a subcutaneous site. Electrical stimulation was applied for three hours. At the conclusion of each experiment, the heart was fibrillated electrically and quickly removed, and the LCCA was dissected free as far as possible to verify the position of the implanted anodal electrode.\nas §1\nCoronary thrombosis was quantified as the time to full occlusion. The effects of the various peptide treatments on coronary thrombosis is illustrated in FIG. 4."}, "platelets [4]": {"tested_on": "platelets", "experiment": "Ex vivo ADP-stimulated platelet aggregation in baboon PRP", "settings": "animal 2; ADP 10 μm; PRP at 0, 1 and 2 hours", "method": "At one- and two-hour time points, template bleeding times were measured, and blood samples were drawn to assess the hematology aggregation studies. Platelet aggregation studies were performed as described in Example V using ADP as the stimulus.\nIn addition, platelet aggregation studies were conducted on PRP derived from the second animal. Whole blood was drawn at three time points (0, 1 and 2 hours) of both control and experimental shunts."}, "[5]": {"settings": "10 mg/kg injection, all three time points"}, "[6]": {"settings": "10 mg/kg bolus + 10 mg/kg/hr infusion, intra-atrial"}},
  "note": "pIC50: −log10 of the molar value. Several values for one entry are separate records, joined by “and”; a condition that tells them apart may be missing. Identical values can stand only once.",
  "data": [
    {"substance": "VRGDSPDG", "values": [
      {"measurement": "pIC50", "setting": "[1]", "value": 7.40}
    ]},
    {"substance": "GPenGHRGDLRCA", "values": [
      {"measurement": "Ex vivo inhibition of ADP-stimulated aggregation", "setting": "platelets [2]; 10 mg/kg injection, 1, 3 and 5 h", "value": "substantially inhibited"},
      {"measurement": "Ex vivo inhibition of AA-stimulated aggregation relative to control levels", "setting": "platelets [2]; [5]", "value": "43-70%"},
      {"measurement": "Ex vivo inhibition of collagen-stimulated aggregation relative to control levels", "setting": "platelets [2]; [5]", "value": "12-50%"},
      {"measurement": "Effect on time to full coronary occlusion", "setting": "[3]; [6]", "value": "did not significantly influence"},
      {"measurement": "Ex vivo platelet response to ADP", "setting": "platelets [4]", "value": "completely unresponsive"}
    ]},
    {"substance": "RPenGHRGDWRCR", "values": [
      {"measurement": "Ex vivo inhibition of platelet activation by collagen", "setting": "platelets [2]; 5 mg/kg injection", "value": "near-maximal inhibition"},
      {"measurement": "Ex vivo platelet response to ADP and AA", "setting": "platelets [2]; 5 mg/kg injection, all three time points", "value": "completely unresponsive"},
      {"measurement": "Ex vivo anti-aggregation effect at low platelet count", "setting": "platelets [2]; 5 mg/kg injection, platelet count ca. one-third of normal (104,000/ml vs. 361,000/ml)", "value": "more pronounced"},
      {"measurement": "Effect on time to full coronary occlusion", "setting": "[3]; 5 mg/kg bolus + 5 mg/kg/hr infusion, intra-atrial", "value": "significantly prolonged the time to occlusion"},
      {"measurement": "Thrombus formation in animals with low platelet levels", "setting": "[3]; 5 mg/kg, circulating platelet levels one-third of normal", "value": "able to prevent thrombus formation"},
      {"measurement": "Effect on time to full coronary occlusion", "setting": "[3]; [6]", "value": "completely prevented occlusion"}
    ]},
    {"substance": "YRGDSPDG", "values": [
      {"measurement": "pIC50", "setting": "[1]", "value": 5.96}
    ]},
    {"substance": "RPenGRGDWPCR", "values": [
      {"measurement": "Ex vivo reduction of aggregation relative to control levels", "setting": "platelets [2]; one hour", "value": "20-58%"},
      {"measurement": "Ex vivo reduction of aggregation relative to control levels", "setting": "platelets [2]; three and five hours, listed as 4R", "value": "75-100% and 72-100%"},
      {"measurement": "Ex vivo platelet response to all modes of stimulation", "setting": "platelets [2]; 10 mg/kg injection, all time points", "value": "unresponsive to all modes of stimulation"},
      {"measurement": "Effect on time to full coronary occlusion", "setting": "[3]; 3 mg/kg", "value": "ineffective"},
      {"measurement": "Effect on time to full coronary occlusion", "setting": "[3]; [6]", "value": "prevented occlusion throughout the duration of the study"}
    ]}
  ]
}
